The IC50 is the concentration needed to halve the response being measured. A lower IC50 goes with higher potency.

Where a name gives a salt, the structure may show the parent alone.

The target in the assay is LRRK2 (G2019S mutation, GST-LRRK2 (amino acids 970-2527)) (Homo sapiens (Human), UniProt Q5S007, G2019S). Nature of the assay: LRRK2 Km ATP LanthaScreen Assay. The following applies: mean IC50 of several test results. The format is biochemical. From the text: Unless otherwise noted, all LRRK2 IC50 data presented in tables refers to the LRRK2 Km ATP LanthaScreen™ Assay that is described in the Biological Assay section.
LRRK2 (G2019S mutation, GST-LRRK2 (amino acids 970-2527)), sequence (Q5S007 970-2527 G2019S): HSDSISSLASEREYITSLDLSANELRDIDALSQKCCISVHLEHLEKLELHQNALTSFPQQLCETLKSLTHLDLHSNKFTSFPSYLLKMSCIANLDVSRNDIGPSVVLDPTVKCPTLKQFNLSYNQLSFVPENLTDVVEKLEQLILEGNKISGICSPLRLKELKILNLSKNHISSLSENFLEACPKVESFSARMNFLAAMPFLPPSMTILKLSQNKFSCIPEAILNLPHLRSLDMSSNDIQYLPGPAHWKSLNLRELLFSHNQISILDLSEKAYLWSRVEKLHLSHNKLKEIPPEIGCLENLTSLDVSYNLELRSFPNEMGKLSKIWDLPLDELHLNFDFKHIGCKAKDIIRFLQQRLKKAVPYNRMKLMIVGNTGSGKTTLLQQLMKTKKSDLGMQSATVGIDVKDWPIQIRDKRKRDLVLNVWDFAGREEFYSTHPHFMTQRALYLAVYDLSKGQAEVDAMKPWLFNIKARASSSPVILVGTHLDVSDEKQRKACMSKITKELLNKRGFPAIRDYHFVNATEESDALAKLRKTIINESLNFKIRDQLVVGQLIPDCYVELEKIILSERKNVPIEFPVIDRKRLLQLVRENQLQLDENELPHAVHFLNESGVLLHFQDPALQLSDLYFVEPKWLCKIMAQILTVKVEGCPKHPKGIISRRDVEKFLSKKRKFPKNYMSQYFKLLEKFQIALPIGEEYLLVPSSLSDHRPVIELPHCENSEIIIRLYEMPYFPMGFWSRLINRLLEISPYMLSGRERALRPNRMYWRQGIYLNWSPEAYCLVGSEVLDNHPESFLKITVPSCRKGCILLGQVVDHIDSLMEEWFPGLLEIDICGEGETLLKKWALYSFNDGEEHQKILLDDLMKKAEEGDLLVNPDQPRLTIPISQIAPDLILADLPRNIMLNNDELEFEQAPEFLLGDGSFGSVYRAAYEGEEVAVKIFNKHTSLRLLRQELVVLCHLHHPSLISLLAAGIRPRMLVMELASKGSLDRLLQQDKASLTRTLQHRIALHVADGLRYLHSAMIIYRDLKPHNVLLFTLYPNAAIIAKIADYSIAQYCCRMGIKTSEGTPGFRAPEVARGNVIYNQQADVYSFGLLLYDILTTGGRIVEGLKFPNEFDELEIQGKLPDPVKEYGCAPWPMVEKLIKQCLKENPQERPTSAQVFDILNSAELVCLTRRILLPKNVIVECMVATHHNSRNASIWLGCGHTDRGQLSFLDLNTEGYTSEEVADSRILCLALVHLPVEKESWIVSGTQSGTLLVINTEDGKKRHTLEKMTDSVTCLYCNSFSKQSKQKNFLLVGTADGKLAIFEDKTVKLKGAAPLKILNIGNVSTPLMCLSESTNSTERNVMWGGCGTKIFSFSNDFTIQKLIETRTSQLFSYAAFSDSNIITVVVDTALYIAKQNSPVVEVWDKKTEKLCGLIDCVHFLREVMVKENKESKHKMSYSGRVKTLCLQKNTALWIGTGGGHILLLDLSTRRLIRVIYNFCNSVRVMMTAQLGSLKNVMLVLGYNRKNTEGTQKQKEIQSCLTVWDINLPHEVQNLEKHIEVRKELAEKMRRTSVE
The data presented for the Km ATP LanthaScreen™ Assay represents mean IC50 values based on several test results and may have reasonable deviations depending on the specific conditions and reagents used. Reagents for the LRRK2 Km ATP LanthaScreen™ Assay were purchased from Life Technologies Corporation.
LRRK2 Km ATP LanthaScreen™ Assay
a) 400 nl of a 1:2.15 serial dilution of test compound (98 μM top assay concentration) is spotted via Labcyte Echo to certain wells in a 384 well black, untreated plate. Control wells contain 400 nl of either DMSO or 400 nl of a known inhibitor in DMSO.
c) A 30 minute room temperature incubation is followed by addition of 10 μl of 800 nM fluorescein labeled LRRKtide peptide substrate and 186 μM ATP solution in 1× assay buffer to all wells.
d) After a 60 minute room temperature incubation, 20 μl of TR-FRET Dilution Buffer (Invitrogen PV3756B) containing 4 nM Tb-labeled anti-phospho LRRKtide antibody and 20 mM EDTA is added to all wells.
e) Plates are incubated at room temperature for 1 hour and read on an Envision™ multi-mode plate reader with LanthaScreen™ settings. Results are analysed using Assay Data Analyzer.
In the case of `c1ccc2c(c1)cnn2-c1ccnc(N2CCOCC2)c1` [Example 2, 4-(4-(1H-indazol-1-yl)pyridin-2-yl)morpholine], the midpoint of inhibition, the IC50, lay at 633 nM.

On to `Cn1cc(-c2cc(F)c3cnn(-c4ccnc(N5CCOCC5)c4)c3c2)cn1` [Example 3, 4-(4-(4-fluoro-6-(1-methyl-1H-pyrazol-4-yl)-1H-indazol-1-yl)pyridin-2-yl)morpholine], for which the IC50 was determined as 228 nM.

Compound `CC(C)Oc1ccc2cnn(-c3ccnc(N4CCOCC4)c3)c2c1` [Example 4, 4-(4-(6-isopropoxy-1H-indazol-1-yl)pyridin-2-yl)morpholine hydrochloride] displayed an IC50 of 122 nM. This IC50 lies about 1.9-fold lower than the previous one.

`Cn1cncc1-c1ccc2cnn(-c3ccnc(N4CCOCC4)c3)c2c1` [Example 6, 4-(4-(6-(1-methyl-1H-imidazol-5-yl)-1H-indazol-1-yl)pyridin-2-yl)morpholine] showed an IC50 of 119 nM.

Regarding `CN1CCN(c2cc(-n3ncc4ccc(-c5cnn(C)c5)cc43)ccn2)CC1` [Example 9, 6-(1-methyl-1H-pyrazol-4-yl)-1-(2-(4-methylpiperazin-1-yl)pyridin-4-yl)-1H-indazole], the midpoint of inhibition, the IC50, lay at 56 nM.

With `CN1CCN(c2cc(-n3ncc4ccc(-c5cnn(C)c5)cc43)ccn2)CC1=O` [Example 10, 1-methyl-4-(4-(6-(1-methyl-1H-pyrazol-4-yl)-1H-indazol-1-yl)pyridin-2-yl)piperazin-2-one], inhibition was half-maximal at 126 nM (IC50).

Compound `Cn1cc(-c2ccc3cnn(-c4ccnc(N5CC(F)(F)C5)c4)c3c2)cn1` [Example 11, 1-(2-(3,3-difluoroazetidin-1-yl)pyridin-4-yl)-6-(1-methyl-1H-pyrazol-4-yl)-1H-indazole] returned an IC50 of 224 nM.

The compound `Cn1cc(-c2ccc3cnn(-c4ccnc(N5CC[C@H](F)C5)c4)c3c2)cn1` [Example 13, (S)-1-(2-(3-fluoropyrrolidin-1-yl)pyridin-4-yl)-6-(1-methyl-1H-pyrazol-4-yl)-1H-indazole] displayed an IC50 of 108 nM.

Take `Cn1cc(-c2ccc3cnn(-c4ccnc(N5CC(F)C5)c4)c3c2)cn1` [Example 14, 1-(2-(3-fluoroazetidin-1-yl)pyridin-4-yl)-6-(1-methyl-1H-pyrazol-4-yl)-1H-indazole]: the IC50 amounted to 145 nM.

With `Cn1cc(-c2ccc3cnn(-c4ccnc(N5CCN(C(=O)OC(C)(C)C)CC5)c4)c3c2)cn1` [Example 15, tert-butyl 4-(4-(6-(1-methyl-1H-pyrazol-4-yl)-1H-indazol-1-yl)pyridin-2-yl)piperazine-1-carboxylate], half-maximal inhibition (IC50) was put at 34 nM. This IC50 is about 4.3-fold lower than that of the compound before.

In the case of `Cn1cc(-c2ccc3cnn(-c4ccnc(N5CCC(S(C)(=O)=O)CC5)c4)c3c2)cn1` [Example 16, 6-(1-methyl-1H-pyrazol-4-yl)-1-(2-(4-(methylsulfonyl)piperidin-1-yl)pyridin-4-yl)-1H-indazole], the IC50 was found to be 128 nM.

`c1cc(-n2ncc3ccc(-c4cn[nH]c4)cc32)cc(N2CCOCC2)n1` [Example 18, 4-(4-(6-(1H-pyrazol-4-yl)-1H-indazol-1-yl)pyridin-2-yl)morpholine] registered an IC50 of 73 nM. This IC50 is about 1.8-fold lower than that of the compound before.

As to `CCn1cc(-c2ccc3cnn(-c4ccnc(N5CCOCC5)c4)c3c2)cn1` [Example 19, 4-(4-(6-(1-ethyl-1H-pyrazol-4-yl)-1H-indazol-1-yl)pyridin-2-yl)morpholine], the concentration for half-maximal inhibition (IC50) came to 128 nM.

In turn, `CC(C)Oc1ccc2cnn(-c3ccnc(N4CCn5ccnc5C4)c3)c2c1` [Example 23, 7-(4-(6-isopropoxy-1H-indazol-1-yl)pyridin-2-yl)-5,6,7,8-tetrahydroimidazo[1,2-a]pyrazine] had an IC50 of 446 nM.

Compound `CCc1nnc2n1CCN(c1cc(-n3ncc4ccc(OC(C)C)cc43)ccn1)C2` [Example 24, 3-ethyl-7-(4-(6-isopropoxy-1H-indazol-1-yl)pyridin-2-yl)-5,6,7,8-tetrahydro-[1,2,4]triazolo[4,3-a]pyrazine] had an IC50 of 435 nM.

Compound `CC(C)Oc1ccc2cnn(-c3ccnc(N4CCOC(CCO)C4)c3)c2c1` (stereo not shown) [Example 25, 2-(4-(4-(6-isopropoxy-1H-indazol-1-yl)pyridin-2-yl)morpholin-2-yl)ethanol] gave an IC50 of 412 nM.

In turn, `CC(C)Oc1ccc2cnn(-c3ccnc(N4CCC4)c3)c2c1` [Example 26, 1-(2-(azetidin-1-yl)pyridin-4-yl)-6-isopropoxy-1H-indazole] displayed an IC50 of 584 nM. The IC50 values of the last two compounds are within 1.5-fold of each other.

In turn, `CC(C)Oc1ccc2cnn(-c3ccnc(N4CCN(CC5CCC5)CC4)c3)c2c1` [Example 27, 1-(2-(4-(cyclobutylmethyl)piperazin-1-yl)pyridin-4-yl)-6-isopropoxy-1H-indazole] yielded an IC50 of 362 nM.

Take `CC(C)Oc1ccc2cnn(-c3ccnc(N4CCO[C@@H](C)C4)c3)c2c1` [Example 28, (S)-4-(4-(6-isopropoxy-1H-indazol-1-yl)pyridin-2-yl)-2-methylmorpholine]: the IC50 was found to be 612 nM.

Compound `CC(C)Oc1ccc2cnn(-c3ccnc(N4CCO[C@H](C)C4)c3)c2c1` [Example 29, (R)-4-(4-(6-isopropoxy-1H-indazol-1-yl)pyridin-2-yl)-2-methylmorpholine] came in with an IC50 of 490 nM. This IC50 and that of the compound before are within 1.5-fold of each other.

The compound `CC(C)Oc1ccc2cnn(-c3ccnc(N4CC(C(C)(C)O)C4)c3)c2c1` [Example 30, 2-(1-(4-(6-isopropoxy-1H-indazol-1-yl)pyridin-2-yl)azetidin-3-yl)propan-2-ol] came in with a half-inhibitory concentration (IC50) of 418 nM.

Regarding `CC(C)Oc1ccc2cnn(-c3ccnc(N4CCN(C)C(=O)C4)c3)c2c1` [Example 31, 4-(4-(6-isopropoxy-1H-indazol-1-yl)pyridin-2-yl)-1-methylpiperazin-2-one], half-maximal inhibition (IC50) was put at 443 nM.

As for `CC(C)Oc1ccc2cnn(-c3ccnc(N4C[C@@H](C)O[C@@H](C)C4)c3)c2c1` [Example 32, cis-4-(4-(6-isopropoxy-1H-indazol-1-yl)pyridin-2-yl)-2,6-dimethylmorpholine], the IC50 worked out at 245 nM.

Compound `CC(C)Oc1ccc2cnn(-c3ccnc(N4CCN(c5ncccn5)CC4)c3)c2c1` [Example 33, 6-isopropoxy-1-(2-(4-(pyrimidin-2-yl)piperazin-1-yl)pyridin-4-yl)-1H-indazole] showed a concentration for half-maximal inhibition (IC50) of 326 nM.

`CC(C)Oc1ccc2cnn(-c3ccnc(N4CCC(O)C4)c3)c2c1` (stereo not shown) [Example 34, 1-(4-(6-isopropoxy-1H-indazol-1-yl)pyridin-2-yl)pyrrolidin-3-ol] returned an IC50 of 307 nM. The IC50 values of the last two compounds are within 1.5-fold of each other.

As to `CC(C)Oc1ccc2cnn(-c3ccnc(N4CCN(C)CC4)c3)c2c1` [Example 35, 6-isopropoxy-1-(2-(4-methylpiperazin-1-yl)pyridin-4-yl)-1H-indazole], the IC50 turned out to be 181 nM.

`COC1CCCN(c2cc(-n3ncc4ccc(OC(C)C)cc43)ccn2)C1` (stereo not shown) [Example 36, 6-isopropoxy-1-(2-(3-methoxypiperidin-1-yl)pyridin-4-yl)-1H-indazole] had an IC50 of 596 nM. This IC50 is about 3.3-fold higher than that of the compound before.

Compound `CC(C)Oc1ccc2cnn(-c3ccnc(N4CCCC4)c3)c2c1` [Example 37, 6-isopropoxy-1-(2-(pyrrolidin-1-yl)pyridin-4-yl)-1H-indazole] showed an IC50 of 229 nM.

On to `CC(C)Oc1ccc2cnn(-c3ccnc(N4CCN(CCO)CC4)c3)c2c1` [Example 39, 2-(4-(4-(6-isopropoxy-1H-indazol-1-yl)pyridin-2-yl)piperazin-1-yl)ethanol], for which half-maximal inhibition (IC50) required 193 nM.

In turn, `CC(C)Oc1ccc2cnn(-c3ccnc(N4CCC(O)CC4)c3)c2c1` [Example 40, 1-(4-(6-isopropoxy-1H-indazol-1-yl)pyridin-2-yl)piperidin-4-ol] displayed an IC50 of 378 nM.

In the case of `COC1(C)CN(c2cc(-n3ncc4ccc(OC(C)C)cc43)ccn2)C1` [Example 41, 6-isopropoxy-1-(2-(3-methoxy-3-methylazetidin-1-yl)pyridin-4-yl)-1H-indazole], half-maximal inhibition (IC50) was put at 890 nM. Compared with the last compound, the IC50 is about 2.4-fold higher.

`CC(C)Oc1ccc2cnn(-c3ccnc(N4CC[C@@H](F)C4)c3)c2c1` [Example 42, (R)-1-(2-(3-fluoropyrrolidin-1-yl)pyridin-4-yl)-6-isopropoxy-1H-indazole]: the concentration for half-maximal inhibition (IC50) is 412 nM.

With `CC(C)Oc1ccc2cnn(-c3ccnc(N4CC[C@H](F)C4)c3)c2c1` [Example 43, (S)-1-(2-(3-fluoropyrrolidin-1-yl)pyridin-4-yl)-6-isopropoxy-1H-indazole], it took 950 nM to reach half-maximal inhibition (IC50).

In the case of `Cn1cc(-c2ccc3cnn(-c4ccnc(N5CCC(O)CC5)c4)c3c2)cn1` [Example 44, 1-(4-(6-(1-methyl-1H-pyrazol-4-yl)-1H-indazol-1-yl)pyridin-2-yl)piperidin-4-ol], 100 nM corresponded to half-maximal inhibition (IC50). Against the preceding compound, the IC50 is about 9.5-fold lower.

For the compound `Cn1cc(-c2ccc3cnn(-c4ccnc(N5CCCCC5)c4)c3c2)cn1` [Example 45, 6-(1-methyl-1H-pyrazol-4-yl)-1-(2-(pipendin-1-yl)pyridin-4-yl)-1H-indazole], the IC50 amounted to 141 nM.

In turn, `Cn1cc(-c2ccc3cnn(-c4ccnc(N5CCCC5)c4)c3c2)cn1` [Example 46, 6-(1-methyl-1H-pyrazol-4-yl)-1-(2-(pyrrolidin-1-yl)pyridin-4-yl)-1H-indazole] showed an IC50 of 74 nM.

In the case of `CO[C@H]1CN(c2cc(-n3ncc4ccc(-c5cnn(C)c5)cc43)ccn2)C[C@@H]1O` [Example 48, (3S,4S)-4-methoxy-1-(4-(6-(1-methyl-1H-pyrazol-4-yl)-1H-indazol-1-yl)pyridin-2-yl)pyrrolidin-3-ol], the IC50 was 399 nM.

The values are drawn from patent US10954240B2, “Compounds inhibiting leucine-rich repeat kinase enzyme activity” (Merck Sharp & Dohme Corp., priority 2014, dated 2021).
